We go through 18 compounds from patent US12577206B2 (BRISTOL-MYERS SQUIBB COMPANY, priority 2020, dated 2026).

In one assay the target is T1, human FPR2 (Homo sapiens, UniProt P25090).
T1 sequence (P25090 1-351): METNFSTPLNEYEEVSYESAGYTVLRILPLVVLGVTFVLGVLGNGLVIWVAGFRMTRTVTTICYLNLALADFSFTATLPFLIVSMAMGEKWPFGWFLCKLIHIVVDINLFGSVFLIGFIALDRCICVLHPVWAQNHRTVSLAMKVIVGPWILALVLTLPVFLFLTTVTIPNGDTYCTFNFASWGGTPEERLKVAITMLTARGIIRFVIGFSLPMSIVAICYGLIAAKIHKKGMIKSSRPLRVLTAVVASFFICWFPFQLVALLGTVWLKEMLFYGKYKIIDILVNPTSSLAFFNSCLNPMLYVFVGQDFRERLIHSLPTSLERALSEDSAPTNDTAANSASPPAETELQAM
The assay is described as follows: FPR2 cyclic adenosine monophosphate (cAMP) assay. Format: cell-based. As to conditions: CHO cells overexpressing human FPR2; forskolin 5 μM; inhibition of cAMP production; HTRF; read-out: hFPR2 cAMP2 EC50. From the text: (§1) N-formyl peptide receptors (FPRs) are a family of chemo attractant receptors that facilitate leukocyte response during inflammation. FPRs belong to the seven-transmembrane G protein-coupled receptor superfamily and are linked to inhibitory G-proteins (Gi). Three family members (FPR1, FPR2 and FPR3) have been identified in humans and are predominantly found in myeloid cells with varied distribution and have also been reported in multiple organs and tissues. After agonist binding, the FPRs activate a multitude of physiological pathways, such as intra cellular signaling transduction, Ca^2+ mobilization and transcription. The family interacts with a diverse set of ligands that includes proteins, polypeptides and fatty acid metabolites which activate both pro-inflammatory and pro-resolution downstream responses. FPR2 and FPR1 Cyclic Adenosine Monophosphate (cAMP) Assays were used to measure the in vitro activity of the compounds disclosed in this application.
(§2) FPR2 and FPR1 Cyclic Adenosine Monophosphate (cAMP) Assays. A mixture of forskolin (5 μM final for FPR2 or 10 μM final for FPR1) and IBMX (200 μM final) were added to 384-well Proxiplates (Perkin-Elmer) pre-dotted with test compounds in DMSO (1% final) at final concentrations in the range of 0.020 nM to 100 μM. Chinese Hamster Ovary cells (CHO) overexpressing human FPR1 or human FPR2 receptors were cultured in F-12 (Ham's) medium supplemented with 10% qualified FBS, 250 μg/mL zeocin and 300 μg/mL hygromycin (Life Technologies). Reactions were initiated by adding 2,000 human FPR2 cells per well or 4,000 human FPR1 cells per well in Dulbecco's PBS (with calcium and magnesium) (Life Technologies) supplemented with 0.1% BSA (Perkin-Elmer). The reaction mixtures were incubated for 30 min at rt. The level of intracellular cAMP was determined using the HTRF HiRange cAMP assay reagent kit (Cisbio) according to manufacturer's instruction. Solutions of cryptate conjugated anti-cAMP and d2 flurorophore-labeled cAMP were made in a supplied lysis buffer separately. Upon completion of the reaction, the cells were lysed with equal volume of the d2-cAMP solution and anti-cAMP solution. […] The potency and activity of a compound to inhibit cAMP production was then determined by fitting to a 4-parametric logistic equation from a plot of cAMP level versus compound concentrations.
(Cyclic AMP is a second messenger, typically raised through Gs and lowered through Gi signalling.)

In another assay the target is T2, human FPR1 (Homo sapiens, UniProt P21462).
T2 sequence (P21462 1-350): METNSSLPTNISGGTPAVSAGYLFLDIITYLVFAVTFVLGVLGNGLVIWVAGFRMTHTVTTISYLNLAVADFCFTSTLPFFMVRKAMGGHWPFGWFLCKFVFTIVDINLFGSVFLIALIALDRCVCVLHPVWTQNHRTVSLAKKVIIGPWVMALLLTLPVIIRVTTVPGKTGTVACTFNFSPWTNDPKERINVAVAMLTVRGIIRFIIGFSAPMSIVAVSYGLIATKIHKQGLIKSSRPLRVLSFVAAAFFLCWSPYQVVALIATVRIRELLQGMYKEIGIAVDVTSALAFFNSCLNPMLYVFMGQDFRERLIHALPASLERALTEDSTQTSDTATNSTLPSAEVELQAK
The assay is described as follows: FPR1 cyclic adenosine monophosphate (cAMP) assay. Format: cell-based. As to conditions: CHO cells overexpressing human FPR1; forskolin 10 μM; inhibition of cAMP production; HTRF; read-out: hFPR1 cAMP2 EC50.
Text: as §1, §2

Structures are written as SMILES.

Usually EC50 stands for the concentration at which the effect is half-maximal. Regarding `COc1cncc(-n2c(=O)c(NC(=O)c3ccc(OC(F)F)cc3)c(-c3c(F)cc(OC)cc3F)n2C)c1` [Example 129, N-[5-(2,6-difluoro-4-methoxyphenyl)-2-(5-methoxypyridin-3-yl)-1-methyl-3-oxo-2,3-dihydro-1H-pyrazol-4-yl]-4-(difluoromethoxy)benzamide], the EC50 on human FPR2 stood at 24 nM; at human FPR1, 2200 nM.
As for `COc1cc(F)c(-c2c(NC(=O)c3ccc(Cl)cc3)c(=O)n(-c3ncccc3Cl)n2C)c(F)c1` [Example 164, 4-chloro-N-[2-(3-chloropyridin-2-yl)-5-(2,6-difluoro-4-methoxyphenyl)-1-methyl-3-oxo-2,3-dihydro-1H-pyrazol-4-yl]benzamide], the EC50 at human FPR2 is 15 nM; at human FPR1, more than 10000 nM.
With `COc1cc(N2CC(OC(C)C)C2)nc(-n2c(=O)c(NC(=O)c3ccc(OC(F)F)cc3)c(-c3c(F)cc(OC)cc3F)n2C)c1` [Example 106, N-[5-(2,6-difluoro-4-methoxyphenyl)-2-{4-methoxy-6-[3-(propan-2-yloxy)azetidin-1-yl]pyridin-2-yl}-1-methyl-3-oxo-2,3-dihydro-1H-pyrazol-4-yl]-4-(difluoromethoxy)benzamide], the EC50 at human FPR2 stood at 5 nM.
`COc1cc(N2CCC(F)(F)C2)nc(-n2c(=O)c(NC(=O)c3ccc(OC(F)F)cc3)c(-c3c(F)cc(OC)cc3F)n2C)c1` [Example 99, N-[5-(2,6-difluoro-4-methoxyphenyl)-2-[6-(3,3-difluoropyrrolidin-1-yl)-4-methoxypyridin-2-yl]-1-methyl-3-oxo-2,3-dihydro-1H-pyrazol-4-yl]-4-(difluoromethoxy)benzamide]: the EC50 on human FPR2 was 4 nM.
Consider `COc1cc(N2CC[C@@H](O)C2)nc(-n2c(=O)c(NC(=O)c3ccc(OC(F)F)cc3)c(-c3c(F)cc(OC)cc3F)n2C)c1` [Example 95, N-[5-(2,6-difluoro-4-methoxyphenyl)-2-{6-[(3R)-3-hydroxypyrrolidin-1-yl]-4-methoxypyridin-2-yl}-1-methyl-3-oxo-2,3-dihydro-1H-pyrazol-4-yl]-4-(difluoromethoxy)benzamide], for which the EC50 on human FPR2 was found to be 8 nM.
For the compound `COc1cc(F)c(-c2c(NC(=O)c3ccc(OC(F)F)cc3)c(=O)n(-c3cc(OC(C)C)cc(OCCO)n3)n2C)c(F)c1` [Example 378, N-(5-(2,6-Difluoro-4-methoxyphenyl)-2-(6-(2-hydroxyethoxy)-4-isopropoxypyridin-2-yl)-1-methyl-3-oxo-2,3-dihydro-1H-pyrazol-4-yl)-4-(difluoromethoxy)benzamide], the EC50 on human FPR1 turned out to be 25 nM.
With `COc1cc(F)c(-c2c(NC(=O)c3ccc(OC(F)F)cc3)c(=O)n(-c3cccc(N4C[C@@H](C)N(C)[C@@H](C)C4)n3)n2C)c(F)c1` [Example 103, N-[5-(2,6-difluoro-4-methoxyphenyl)-1-methyl-3-oxo-2-{6-[(3R,5S)-3,4,5-trimethylpiperazin-1-yl]pyridin-2-yl}-2,3-dihydro-1H-pyrazol-4-yl]-4-(difluoromethoxy)benzamide], the EC50 on human FPR2 worked out at 1 nM.
On the same count and under the same terms, as for `COc1cc(F)c(-c2c(NC(=O)c3ccc(OC(F)F)cc3)c(=O)n(-c3cc(C(F)F)ccn3)n2C)c(F)c1` [Example 76, N-[5-(2,6-difluoro-4-methoxyphenyl)-2-[4-(difluoromethyl)pyridin-2-yl]-1-methyl-3-oxo-2,3-dihydro-1H-pyrazol-4-yl]-4-(difluoromethoxy)benzamide], the figure is 12 nM.
Regarding `COc1cc(N2CC(C)(O)C2)nc(-n2c(=O)c(NC(=O)c3ccc(OC(F)F)cc3)c(-c3c(F)cc(OC)cc3F)n2C)c1` [Example 96, N-[5-(2,6-difluoro-4-methoxyphenyl)-2-[6-(3-hydroxy-3-methylazetidin-1-yl)-4-methoxypyridin-2-yl]-1-methyl-3-oxo-2,3-dihydro-1H-pyrazol-4-yl]-4-(difluoromethoxy)benzamide], at human FPR2, the concentration for a half-maximal effect (EC50) is 7 nM.
Consider `COc1cc(NCCO)nc(-n2c(=O)c(NC(=O)c3ccc(OC(F)F)cc3)c(-c3c(F)cc(OC)cc3F)n2C)c1` [Example 94, N-[5-(2,6-difluoro-4-methoxyphenyl)-2-{6-[(2-hydroxyethyl)amino]-4-methoxypyridin-2-yl}-1-methyl-3-oxo-2,3-dihydro-1H-pyrazol-4-yl]-4-(difluoromethoxy)benzamide], for which, on human FPR2, the EC50 was 6 nM.
Consider `COc1cc(F)c(-c2c(NC(=O)c3ccc(OC(F)F)cc3)c(=O)n(-c3cccc(N4CCN(CCO)CC4)n3)n2C)c(F)c1` [Example 107, N-[5-(2,6-difluoro-4-methoxyphenyl)-2-{6-[4-(2-hydroxyethyl)piperazin-1-yl]pyridin-2-yl}-1-methyl-3-oxo-2,3-dihydro-1H-pyrazol-4-yl]-4-(difluoromethoxy)benzamide], for which the half-maximal effective concentration (EC50) at human FPR2 turned out to be 5 nM.
With `COc1cc(N2C3CCC2CN(C)C3)nc(-n2c(=O)c(NC(=O)c3ccc(OC(F)F)cc3)c(-c3c(F)cc(OC)cc3F)n2C)c1` [Example 105, N-[5-(2,6-difluoro-4-methoxyphenyl)-2-(4-methoxy-6-{3-methyl-3,8-diazabicyclo[3.2.1]octan-8-yl}pyridin-2-yl)-1-methyl-3-oxo-2,3-dihydro-1H-pyrazol-4-yl]-4-(difluoromethoxy)benzamide], at human FPR2, the EC50 was found to be 1 nM.
Take `COc1cc(N2CCCC2)nc(-n2c(=O)c(NC(=O)c3ccc(OC(F)F)cc3)c(-c3c(F)cc(OC)cc3F)n2C)c1` [Example 91, N-(5-(2,6-difluoro-4-methoxyphenyl)-2-(4-methoxy-6-(pyrrolidin-1-yl)pyridin-2-yl)-1-methyl-3-oxo-2,3-dihydro-1H-pyrazol-4-yl)-4-(difluoromethoxy)benzamide]: the EC50 on human FPR2 was 20 nM.
Regarding `COc1cc(N2CC[C@H](F)C2)nc(-n2c(=O)c(NC(=O)c3ccc(OC(F)F)cc3)c(-c3c(F)cc(OC)cc3F)n2C)c1` [Example 98, N-[5-(2,6-difluoro-4-methoxyphenyl)-2-{6-[(3S)-3-fluoropyrrolidin-1-yl]-4-methoxypyridin-2-yl}-1-methyl-3-oxo-2,3-dihydro-1H-pyrazol-4-yl]-4-(difluoromethoxy)benzamide], the EC50 on human FPR2 was determined as 6 nM.
Regarding `COc1cc(N2CCN(C)CC2)nc(-n2c(=O)c(NC(=O)c3ccc(OC(F)F)cc3)c(-c3c(F)cc(OC)cc3F)n2C)c1` [Example 101, N-[5-(2,6-difluoro-4-methoxyphenyl)-2-[4-methoxy-6-(4-methylpiperazin-1-yl)pyridin-2-yl]-1-methyl-3-oxo-2,3-dihydro-1H-pyrazol-4-yl]-4-(difluoromethoxy)benzamide], the EC50 at human FPR2 was 3 nM.
Still for that read-out and setting: as for `COc1cc(OC)cc(-n2c(=O)c(NC(=O)c3ccc(OC(F)F)cc3)c(-c3c(F)cc(OC)cc3F)n2C)c1` [Example 108], the figure is 3 nM.
The same measure, in the same setting: under `COc1cc(C2CCNCC2)nc(-n2c(=O)c(NC(=O)c3ccc(OC(F)F)cc3)c(-c3c(F)cc(OC)cc3F)n2C)c1` [Example 367, N-(5-(2,6-Difluoro-4-methoxyphenyl)-2-(4-methoxy-6-(piperidin-4-yl)pyridin-2-yl)-1-methyl-3-oxo-2,3-dihydro-1H-pyrazol-4-yl)-4-(difluoromethoxy)benzamide] stands 1 nM; under `COc1cc(CO)nc(-n2c(=O)c(NC(=O)c3ccc(OC(F)F)cc3)c(-c3c(F)cc(OC)cc3F)n2C)c1` [Example 90, N-[5-(2,6-difluoro-4-methoxyphenyl)-2-[6-(hydroxymethyl)-4-methoxypyridin-2-yl]-1-methyl-3-oxo-2,3-dihydro-1H-pyrazol-4-yl]-4-(difluoromethoxy)benzamide], 8 nM.
